Tests used:
sebaceous gland (SG) = assay: Sebaceous gland (SG) size and cell proliferation in mice injected subcutaneously with caspase-3 inhibitors or activators; type: in vivo; settings: eight week old mice, subcutaneous injection for 7 days
Experimental: Immunofluorescence—Skins were embedded in OCT, frozen, sectioned, and fixed in 4% paraformaldehyde. Tail samples were treated with 5 mM EDTA for 4 hours at 37° C. to separate skin epithelium from dermis and fixed in formal saline for 2 hours at room temperature. Dorsal samples were treated with 5 mM EDTA for 6 hours at 37° C. to separate skin epithelium from dermis and fixed in formal saline for 1 hour at room temperature. Samples were blocked for 2 hours in Blocking buffer consisting of 10% Goat serum, 2% BSA, 0.2% Triton-X. Primary antibodies were diluted in blocking buffer and tissue/sections were incubated overnight at 4° C. Whole mounts or sections were washed at least 3 times with PBS. Secondary antibodies were incubated for 1 hour at room temperature followed by 4 washes with PBS. The following primary antibodies were used: YAP (Rabbit, 1:100, Cell Signalling, Mouse 1:100 Santa Cruz), pYAP (Rabbit, 1:100 Cell Signalling), α-E-Catenin (Rabbit, 1:100, Cell Signalling), Ki67 (Rabbit, 1:100, Abcam; Rat, 1:100, eBioscience), CD34 (Rat, 1:100, eBioscience), K15 (Mouse, 1:100, Thermo, Chicken, 1:1000, Abcam), Sox9 (Rabbit, 1:100, Millipore, Goat, 1:50, Santa Cruz). Cleaved-Caspase-3 (Rabbit, 1:100, Cell signalling), Phalloidin (1:250, Life Technologies). TUNEL was performed using ApopTag TdT (Millipore). […] Analysis was performed on Zeiss LSM 880 confocal microscope.

[1] = system: integrin α6+CD34−EGFPhigh SGPZ cells; assay: Proliferation and expansion of isolated SGPZ cells treated with caspase-3 inhibitors; type: cell-based, mice; settings: z-DEVD-fmk added initially
Experimental: Flow Cytometry—SGPZ cell isolation and FACS analysis were performed with K15-EGFP mice and CD34, integrin α6 and Sca1 antibodies. K15-GFP^high cells were isolated from ears and dorsal skin of 8-week old B6.Cg-Tg(Krt1-15-EGFP)2Cot/J mice.

[2] = system: integrin α6+CD34+ HFSCs, HaCaT keratinocytes and Hek293E3 cells; assay: Expansion of other cell types treated with caspase-3 inhibitors; type: cell-based; settings: one treatment
Text: In order to examine whether Caspase-3 affects the expansion of other cell types the present inventors isolated integrin α6^+CD34^+ HFSCs from second telogen mice.

YAP [3] = assay: YAP nuclear translocation and pYAP levels in EGFPhigh SGPZ cells; type: cell-based, mice; settings: immunoblot
Experimental: (§1) Cell culture—The HaCaT and HEK293 cell lines were cultured in DMEM medium supplemented with 10% FBS, 1% P/S (Pen/Strep) and 1% L-glutamine. Integrin α6^+CD34^+ HFSCs and integrin α6^+CD34^−EGFP^high SGPZ cells were isolated and cultured in HFSC media on sustaining J2 feeder cells. Serum was chelated for a calcium concentration of 50 μM. […] Cells were fixed in 4% PFA for 10 minutes for immunofluorescence analysis or harvested for protein or RNA extraction.
Given that Caspase-3 inhibition hindered cell number and proliferation in vitro the present inventors next examined whether this was mediated via YAP in EGFP^high SGPZ cells using K15^+ SGPZ cells. […] Similar findings as to effect of caspase-3 inhibition on YAP activation and proliferation were also obtained in HaCaT and Hek293E3 cells (FIGS. 3J-K, FIGS. 11B-F).

YAP target genes = assay: RT-PCR of YAP dependent target genes in treated HaCaT cells; type: cell-based; settings: relative to DMSO treated cells
Experimental: RNA extraction, reverse transcription and real-time PCR (RT-PCR)—RNA was isolated using Trizol (Sigma) and up to 2 μg of RNA were subjected to cDNA synthesis (Applied Biosystems). Real time PCR was carried out using the PerfeCTa SYBR Green FastMix (Quanta), with gene-specific primers [RpLp0 [sequence] […] Amplicon levels were analysed in triplicate and quantitated relative to a standard curve comprising cDNA, and values normalized to levels of the housekeeping gene (Rplp0 or Gapdh). Reactions were: 3 minutes at 95° C., then 40 cycles of 10 seconds at 95° C. and 30 seconds at 60° C. with addition of melt curve step: 10 seconds at 95° C., and increments of 0.5° C. every 5 seconds between 65° C. to 95° C.

YAP [4] = assay: YAP localization and pYAP levels in HEK293 cells; type: cell-based
Experimental: as §1

α-Catenin = α-Catenin levels in low confluent HaCaT cells; type: cell-based
Experimental: as §1
TUNEL was performed using ApopTag TdT (Millipore). […] Analysis was performed on Zeiss LSM 880 confocal microscope.
The levels of α-Catenin are known to be a critical factor in the regulation of YAP (27). In low confluent cells, diminished levels of α-Catenin serve as a mechanotransduction mechanism that instructs the nuclear translocation of YAP and drives proliferation (27, 33). […] The present inventors therefore examined the levels of α-Catenin both in vitro and in vivo, by employing both Western blot analysis and immunofluorescence.

[5] = system: excision wounds (1 cm^2) on dorsal skin; assay: Wound repair of full thickness excision wounds on dorsal skin; type: in vivo, mice
Text: For all wound repair experiments, mice were sedated with isofluorane. Mice were shaved with electric clippers and treated topically with a hair removal cream for a few minutes (Nair). Full-thickness excision wounds (1 cm^2) were generated on the dorsal skins and monitored for wound coverage. PWI, mice were individually housed. At the desired time PWI, mice were euthanized with CO2 and the wounded skins were harvested and either embedded in OCT or prepared for whole mounts as described above or for protein extraction.
Inhibition of caspase-3 impairs wound repair—Since YAP is known to play a chief role in regeneration (34), the present inventors investigated whether in vivo inhibition of Caspase-3 affects the wound repair dynamic by modulating YAP activity. […] Full thickness excision wounds (1.0 cm^2) were generated on the dorsalbacks and monitored for wound coverage. In control mice, three days post wound infliction (PWI) the wound size was reduced by 60% while in Ivachtin and z-DEVD-fink (SEQ ID NO: 71) treated mice, it was reduced by only 10% and 20%, respectively (FIG. 5A and FIG. 5B).

human melanoma cells = assay: GFP-infected human melanoma cells injected into recipient mice; settings: mouse, in vivo
Experimental: FIG. 15A—Melanoma cell were injected into recipient mice. […] Representative image 6 days after first treatment. FIG. 15B—quantification of tumor development indicates inhibition of tumor size in response to caspase-3 inhibition. FIG. 15C—Extracted tumors were analyzed for proliferation using the Ki67 marker and the presence of GFP^+ melanoma cells. FIG. 15D—Tumors treated with the caspase-3 activator ABT-199 result in a dramatic increase in tumor mass. […] Scale bars, 20 μm.
Examination of the effect of caspase-3 inhibition on melanoma formation in vivo—For this aim human melanoma cells were stably infected with GFP. Cells were then injected into to recipient mice and the effect of administrating caspase-3 inhibitors was monitored.

501A melanoma cell line = assay: Proliferation of melanoma cell line 501A; type: cell-based
Text: (§2) FIGS. 14A-C depict inhibition of Caspase-3 attenuates proliferation of melanoma cells. […] FIG. 14C—Immunofluorescence of decreased Ki67^+ cells (green) after 4 days of Caspase-3 inhibition. Scale bars, 20 μm (FIG. 14C right panels), 100 μm (FIG. 14A, FIG. 14B panels).
(§3) In order to examine this hypothesis, the present inventors first investigated the effect of caspase-3 inhibition on the proliferation rate of melanoma cells. […] Similar results were also obtained when examining 4 additional cell types (HaCaT keratinocytes, Hek293E3, K15 SG progenitors and hair follicle stem cells) (FIGS. 10A-F).

[6] = system: 624-38 melanoma cell line; assay: Proliferation of melanoma cell line 624-38; type: cell-based
Text: as §2, §3

B16F10 melanoma cells = B16F10 melanoma cells in vitro: growth, Ki67, pYAP, α-Catenin; type: cell-based
Text: FIG. 23D—A histogram depicting quantifications of 501-A total cells number after treatment with Z-DEVD-fink (SEQ ID NO: 71). FIG. 23E—Images depicting B16F10 melanoma cells stained for Ki67 (red), active cleaved Caspase-3 (green) and nuclear counterstain DAPI (blue). […] Insets are zoom in on specific cells, Denotation: CP3, Caspase-3. Scale bars: 100 μm. ** (P<0.01), *** (P<0.001).
FIG. 24A—Images depicting B16F10 melanoma cells stained for pYAP (red). […] FIG. 24D—Images depicting B16F10 melanoma cells stained for α-Catenin (green). […] FIG. 24E—Immunoblot analysis of proteins isolated from B16F10 melanoma cells using antibodies against pYAP, α-Catenin and α-Tubulin as control.

z-DEVD-fmk
SG size (sebaceous gland (SG)): decrease in SG size
cell number [1]: dramatically inhibited
number of formed colonies [1]: dramatically inhibited
expansion of cells [2]: impaired the expansion
levels of pYAP (YAP [3]): increased pYAP levels
ErbB4 expression, downregulation (YAP target genes): 6 fold
HOXA5 expression, decrease (YAP target genes): 2 fold
HOXC13 expression, decrease (YAP target genes): 5 fold
WTIP expression, downregulation (YAP target genes): 2 fold
nuclear YAP localization (YAP [4]): Decreased nuclear YAP localization
pYAP levels (YAP [4]; Western blot): increased pYAP levels
levels of α-Catenin (α-Catenin): increased levels
de novo HF regeneration from the wound bed ([5]; 20 and 30 days PWI): inhibited
wound closure ([5]; FIGS. 19A-F): significant decrease
cells positive for nuclear YAP in the wound border ([5]; mouse, in vivo): Decreased nuclear YAP
wound size reduced by ([5]; three days post wound infliction, injected from 2 days prior to wounding): 20%
effect on tumor development, one inhibitor compared with the other (human melanoma cells): stronger effect
cell proliferation and number (501A melanoma cell line): dramatic decrease
cell proliferation and number [6]: dramatic decrease
proliferative (Ki67) cells (B16F10 melanoma cells): reduced levels of proliferative cells
phosphorylated YAP-positive cells (pYAP+) (B16F10 melanoma cells; compared to DMSO): significant increases
growth of B16F10 melanoma cells (B16F10 melanoma cells; continuous presence of inhibitor): hindered
